Experimental data from patent US20250340575A1, “4-AMINOPYRROLO[2,1-F][1,2,4]TRIAZINES AND PREPARATION AND USES THEREOF” (Biosplice Therapeutics, Inc., priority 2024, published 2025).

Each compound was assayed against recombinant DYRK1A kinase (Homo sapiens, UniProt Q13627) (assay: DYRK1A kinase assay (Ser/Thr 18 peptide Z-lyte FRET)). Details: DYRK1A 0.25 μg/mL, ATP 15 μM, Ser/Thr peptide 18 4 μM, one hour at room temperature, 11-point dose-response from 10 μM.
Format: biochemical

Question: For `CNc1nc(N[C@H]2CCN(C(C)=O)C[C@H]2F)nn2ccc(-c3ccc4nnn(CCCF)c4n3)c12` [Compound 335, 1-((3R,4S)-3-Fluoro-4-((5-(3-(3-fluoropropyl)-3H-[1,2,3]triazolo[4,5-b]pyridin-5-yl)-4-(methylamino)pyrrolo[2,1-f][1,2,4]triazin-2-yl)amino)piperidin-1-yl)ethan-1-one], which IC50 is on record?
Answer: 3.4 nM

Question: How did the IC50 turn out when `CNc1nc(N[C@H]2CCN(C3COC3)C[C@H]2F)nn2ccc(-c3ccc4nnn(CCCF)c4n3)c12` [Compound 337, N^2-((3R,4S)-3-Fluoro-1-(oxetan-3-yl)piperidin-4-yl)-5-(3-(3-fluoropropyl)-3H-[1,2,3]triazolo[4,5-b]pyridin-5-yl)-N^4-methylpyrrolo[2,1-f][1,2,4]triazine-2,4-diamine] was run?
Answer: 4.4 nM

Question: `CNc1nc(N[C@@H]2CCN(C)CC2(F)F)nn2ccc(-c3ccc4nnn(CCCF)c4n3)c12` [Compound 338, (R)—N^2-(3,3-Difluoro-1-methylpiperidin-4-yl)-5-(3-(3-fluoropropyl)-3H-[1,2,3]triazolo[4,5-b]pyridin-5-yl)-N^4-methylpyrrolo[2,1-f][1,2,4]triazine-2,4-diamine] was tested. Which IC50 did it give?
Answer: 3.1 nM

Question: With `CNc1nc(N[C@@H]2CCN(C(C)=O)CC2(F)F)nn2ccc(-c3ccc4nnn(CCCF)c4n3)c12` [Compound 339, (R)-1-(3,3-Difluoro-4-((5-(3-(3-fluoropropyl)-3H-[1,2,3]triazolo[4,5-b]pyridin-5-yl)-4-(methylamino)pyrrolo[2,1-f][1,2,4]triazin-2-yl)amino)piperidin-1-yl)ethan-1-one] as the compound, how does the IC50 read?
Answer: 3.5 nM

Question: With `CCNc1nc(N[C@H]2CCN(C3COC3)C[C@H]2F)nn2ccc(-c3ccc4nnn(CC(F)F)c4n3)c12` [Compound 403, 5-(3-(2,2-Difluoroethyl)-3H-[1,2,3]triazolo[4,5-b]pyridin-5-yl)-N^4-ethyl-N^2-((3R,4S)-3-fluoro-1-(oxetan-3-yl)piperidin-4-yl)pyrrolo[2,1-f][1,2,4]triazine-2,4-diamine] as the compound, how does the IC50 read?
Answer: 4.2 nM

Question: How did the IC50 turn out when `CC(C)Nc1nc(N[C@H]2CCN(C3COC3)C[C@H]2F)nn2ccc(-c3ccc4nnn(CC(F)F)c4n3)c12` [Compound 411, 5-(3-(2,2-Difluoroethyl)-3H-[1,2,3]triazolo[4,5-b]pyridin-5-yl)-N^2-((3R,4S)-3-fluoro-1-(oxetan-3-yl)piperidin-4-yl)-N^4-isopropylpyrrolo[2,1-f][1,2,4]triazine-2,4-diamine] was run?
Answer: 9.7 nM

Question: For `FC(F)Cn1nnc2ccc(-c3ccn4nc(N[C@H]5CCN(C6COC6)C[C@H]5F)nc(NC5CC5)c34)nc21` [Compound 419, N^4-Cyclopropyl-5-(3-(2,2-difluoroethyl)-3H-[1,2,3]triazolo[4,5-b]pyridin-5-yl)-N^2-((3R,4S)-3-fluoro-1-(oxetan-3-yl)piperidin-4-yl)pyrrolo[2,1-f][1,2,4]triazine-2,4-diamine], which IC50 is on record?
Answer: 8.2 nM
